In patent US7348305B2, “Inhibitor of cardiac tachyarrhythmias” (Department of Veterans Affairs, Rehabilitation, priority 2003, dated 2008):

Assays:
[1] = test system: myeloperoxidase (MPO) activity; assay: Leukocyte infiltration by myeloperoxidase (MPO) activity, Model 2; assay type: in vivo, dog; conditions: etanercept pretreated
Experimental: Calculated Oxygen Requirement and Leukocyte Infiltration: The animal's oxygen requirement was estimated by calculation of the double product (heart rate x mean arterial pressure). The myocardial activity of myeloperoxidase (MPO), an enzyme occurring virtually exclusively in neutrophils, was determined by using a modification of the method of Bradley (Mullane et al., 1985). Change in absorbance was measured spectrophotometrically in the supernatants of homogenized myocardium. One unit of MPO is defined as the quantity of enzyme hydrolyzing […] of peroxide per minute at 25° C.

congestive heart failure = conditions: cited from earlier work

Question: What does the source list for etanercept?
Answer: leukocyte infiltration, myeloperoxidase ratio of ischemic to normal tissue ([1]; Model 2, n=7, saline 11±2.6): 1.8±0.2; decrease in leukocyte accumulation within ischemically injured myocardium ([1]; Model 2, versus saline): 9 fold; benefit upon functional status or survival in congestive heart failure (congestive heart failure; human clinical trials (Anker et al., 2002)): no significant benefits; safety of administration in patients with heart failure (congestive heart failure; human, in vivo): safe
